Measured values taken from US12660819B2, “Herbicidal derivatives” (SYNGENTA CROP PROTECTION AG, priority 2020, dated 2026).

Tests used:
Format in all cases: in vivo
[1] = tested on: Ipomoea hederacea (IPOHE); test: Pre-emergence Test (glasshouse, percentage damage to the plant); conditions: 1000 g/ha unless otherwise stated, five-point scale
Zea mays (ZEAMX) [2] = test: as above; conditions: 1000 g/ha unless otherwise stated, five-point scale
[3] = tested on: Abutilon theophrasti (ABUTH); test: as above; conditions: 1000 g/ha unless otherwise stated, five-point scale
Setaria faberi (SETFA) [4] = test: as above; conditions: 1000 g/ha unless otherwise stated, five-point scale
[5] = tested on: Echinochloa crus-galli (ECHCG); test: Post-emergence Test (glasshouse, percentage damage to the plant); conditions: post-emergence spray, 1000 g/ha unless otherwise stated, evaluated after 13 days
Protocol: (§1) Seeds of a variety of test species are sown in standard soil in pots (Amaranthus retoflexus (AMARE), Solanum nigrum (SOLNI), Setaria faberi (SETFA), Lolium perenne (LOLPE), Echinochloa crus-galli (ECHCG), Ipomoea hederacea (IPOHE), Abutilon theophrasti (ABUTH), Zea mays (ZEAMX), Amaranthus palmeri (AMAPA). After 8 days cultivation under controlled conditions in a glasshouse (at 24° C./16° C., day/night; 14 hours light; 65% humidity), the plants are sprayed with an aqueous spray solution derived from the formulation of the technical active ingredient in acetone/water (50:50) solution containing 0.5% Tween 20 (polyoxyethelyene sorbitan monolaurate, CAS RN 9005-64-5). Compounds are applied at 1000 g/ha unless otherwise stated. The test plants are then grown in a glasshouse under controlled conditions in a glasshouse (at 24° C./16° C., day/night; 14 hours light; 65% humidity) and watered twice daily. After 13 days the test is evaluated for the percentage damage caused to the plant. The biological activities are shown in the following table on a five-point scale (5=81-100%; 4=61-80%; 3=41-60%; 2=21-40%; 1=0-20%).

Zea mays (ZEAMX) [6] = test: as above; conditions: post-emergence spray, 1000 g/ha unless otherwise stated, evaluated after 13 days
Protocol: as §1

[7] = tested on: Ipomoea hederacea (IPOHE); test: as above; conditions: post-emergence spray, 1000 g/ha unless otherwise stated, evaluated after 13 days
Protocol: as §1

Setaria faberi (SETFA) [8] = test: as above; conditions: post-emergence spray, 1000 g/ha unless otherwise stated, evaluated after 13 days
Protocol: as §1

[9] = tested on: Amaranthus retoflexus (AMARE); test: as above; conditions: post-emergence spray, 1000 g/ha unless otherwise stated, evaluated after 13 days
Protocol: as §1

[10] = tested on: Amaranthus retoflexus (AMARE); test: Pre-emergence Test (glasshouse, percentage damage to the plant); conditions: 1000 g/ha unless otherwise stated, five-point scale
[11] = tested on: Echinochloa crus-galli (ECHCG); test: as above; conditions: 1000 g/ha unless otherwise stated, five-point scale

Row | SMILES | percentage damage to the plant, IPOHE [1] | percentage damage to the plant, ZEAMX (Zea mays (ZEAMX) [2]) | percentage damage to the plant, ABUTH [3] | percentage damage to the plant, SETFA (Setaria faberi (SETFA) [4]) | Post-emergence Test ECHCG, percentage damage to the plant (five-point scale) [5] | Post-emergence Test ZEAMX, percentage damage to the plant (five-point scale) (Zea mays (ZEAMX) [6]) | Post-emergence Test IPOHE, percentage damage to the plant (five-point scale) [7] | Post-emergence Test SETFA, percentage damage to the plant (five-point scale) (Setaria faberi (SETFA) [8]) | Post-emergence Test AMARE, percentage damage to the plant (five-point scale) [9] | percentage damage to the plant, AMARE [10] | percentage damage to the plant, ECHCG [11]
1 | CCOc1cc(-c2c(C)n(CC)c(-c3ccc(Cl)cc3)c(C(=O)O)c2=O)ccc1C(F)(F)F [Compound 176, 2-(4-chlorophenyl)-5-[3-ethoxy-4-(trifluoromethyl)phenyl]-1-ethyl-6-methyl-4-oxo-pyridine-3-carboxylic acid] | 0 | 0 | 0 | 0 | 1 (1=0-20%) | 1 (1=0-20%) | 1 (1=0-20%) | 1 (1=0-20%) | 2 (2=21-40%) | 0 | –
2 | CCn1c(C)c(-c2ccc(Cl)cc2OC)c(=O)c(C(=O)O)c1-c1ccc(Cl)cc1 [Compound 184, 5-(4-chloro-2-methoxy-phenyl)-2-(4-chlorophenyl)-1-ethyl-6-methyl-4-oxo-pyridine-3-carboxylic acid] | 0 | 0 | 1 (1=0-20%) | 1 (1=0-20%) | – | 3 (3=41-60%) | 3 (3=41-60%) | 5 (5=81-100%) | 4 (4=61-80%) | 1 (1=0-20%) | 1 (1=0-20%)
3 | CCn1c(C)c(-c2cc(C(F)(F)F)ccc2F)c(=O)c(C(=O)O)c1-c1ccc(Cl)cc1 [Compound 177, 2-(4-chlorophenyl)-1-ethyl-5-[2-fluoro-5-(trifluoromethyl)phenyl]-6-methyl-4-oxo-pyridine-3-carboxylic acid] | 3 (3=41-60%) | 0 | 3 (3=41-60%) | 2 (2=21-40%) | – | 3 (3=41-60%) | 3 (3=41-60%) | 4 (4=61-80%) | 4 (4=61-80%) | 1 (1=0-20%) | 1 (1=0-20%)
4 | CCn1c(C)c(-c2ccc(C(F)(F)F)c(Cl)c2)c(=O)c(C(=O)O)c1-c1ccc(Cl)cc1 [Compound 170, 2-(4-chlorophenyl)-5-[3-chloro-4-(trifluoromethyl)phenyl]-1-ethyl-6-methyl-4-oxo-pyridine-3-carboxylic acid] | 0 | 0 | 0 | 0 | – | 2 (2=21-40%) | 3 (3=41-60%) | 1 (1=0-20%) | 5 (5=81-100%) | 1 (1=0-20%) | 0
5 | CCn1c(-c2ccc(Cl)c(Cl)c2)c(C(=O)OC)c(=O)c(-c2ccc(Cl)cc2)c1C(F)(F)F [Compound 169, methyl 5-(4-chlorophenyl)-2-(3,4-dichlorophenyl)-1-ethyl-4-oxo-6-(trifluoromethyl) pyridine-3-carboxylate] | 0 | 0 | 0 | 0 | – | 1 (1=0-20%) | 0 | 0 | 1 (1=0-20%) | 0 | 0
6 | CCn1c(C)c(-c2cc(C)c(Cl)c(C)c2)c(=O)c(C(=O)O)c1-c1ccc(Cl)cc1 [Compound 197, 5-(4-chloro-3,5-dimethyl-phenyl)-2-(4-chlorophenyl)-1-ethyl-6-methyl-4-oxo-pyridine-3-carboxylic acid] | 0 | 0 | 0 | 0 | – | 1 (1=0-20%) | 2 (2=21-40%) | 1 (1=0-20%) | 1 (1=0-20%) | 0 | 0
7 | CCn1c(C)c(-c2ccc(C(F)(F)F)cc2)c(=O)c(C(=O)O)c1-c1ccnc(Cl)c1 [Compound 140, 2-(2-chloro-4-pyridyl)-1-ethyl-6-methyl-4-oxo-5-[4-(trifluoromethyl)phenyl] pyridine-3-carboxylic acid] | 1 (1=0-20%) | 0 | 1 (1=0-20%) | 2 (2=21-40%) | – | 1 (1=0-20%) | 3 (3=41-60%) | 4 (4=61-80%) | 1 (1=0-20%) | 1 (1=0-20%) | 2 (2=21-40%)
8 | CCn1c(C)c(-c2cc(Cl)ccc2Cl)c(=O)c(C(=O)O)c1-c1ccc(Cl)cc1 [Compound 185, 2-(4-chlorophenyl)-5-(2,5-dichlorophenyl)-1-ethyl-6-methyl-4-oxo-pyridine-3-carboxylic acid] | 0 | 0 | 0 | 0 | – | 1 (1=0-20%) | 2 (2=21-40%) | 3 (3=41-60%) | 3 (3=41-60%) | 0 | 0
9 | CCn1c(C)c(-c2cc(OC)ccc2F)c(=O)c(C(=O)O)c1-c1ccc(Cl)cc1 [Compound 189, 2-(4-chlorophenyl)-1-ethyl-5-(2-fluoro-5-methoxy-phenyl)-6-methyl-4-oxo-pyridine-3-carboxylic acid] | 1 (1=0-20%) | 0 | 3 (3=41-60%) | 2 (2=21-40%) | – | 1 (1=0-20%) | 1 (1=0-20%) | 2 (2=21-40%) | 2 (2=21-40%) | 1 (1=0-20%) | 2 (2=21-40%)
